In article PMC10684410 (Clinical Pharmacokinetics, 2023):

Assays:
[1] = cited from earlier work
TAAR1 = settings: in vitro receptor binding studies; result in words; cited from earlier work
[2] = Plasma paroxetine concentrations in the DDI study; type: in vivo, human (healthy subjects)
[3] = 25 mg ulotaront + 20 mg QD paroxetine vs ulotaront alone, result in words

Structure (SMILES) | metabolite abundance in humans ([1]; minor metabolite in humans) | effective half-life for the metabolite ([1]; ref unpublished data) | binding to TAAR1 (TAAR1) | increase of SEP-363854 AUC∞ by coadministration of paroxetine (25 mg ulotaront + 20 mg QD paroxetine vs ulotaront alone) | effect of paroxetine on SEP-363854 Cmax [3] | effect of paroxetine on SEP-363854 tmax [3] | effect of paroxetine on SEP-363854 to ulotaront AUClast ratio [3] | mean SEP-363854 to ulotaront AUClast ratio (with or without paroxetine coadministration) | AUC ([2]; human, plasma, oral, 20 mg) | Cmax ([2]; human, plasma, oral, 20 mg) | mean plasma trough concentration at steady-state ([2]; paroxetine 20 mg once daily from Day 5, Day 11)
NCC1OCCc2ccsc21 (centres unmarked) [SEP-363854] | < 2 % of total | approximately 6 h | does bind to TAAR1 | 32% | no effect | no effect | no effect | about 0.02 | – | – | –
Fc1ccc([C@@H]2CCNC[C@H]2COc2ccc3c(c2)OCO3)cc1 [Paroxetine] | – | – | – | – | – | – | – | – | 647 ng·h/mL | 37.3 ng/mL | 19.3 ng/mL
